Where two headings read alike, the source gives them in different places.
Key:
Assay in all cases: KinomeScan kinase panel, single concentration 10 µM
Type in all cases: binding
[1] = target: T1, KinomeScan kinase panel (Homo sapiens, UniProt P37023); conditions: ACVRL1, 10 µM; read-out: score (%)
T1 construct: purchased DiscoveRx (KinomeScan)

[2] = target: T2, KinomeScan kinase panel (Homo sapiens, UniProt P29320); conditions: EPHA3, 10 µM; read-out: score (%)
T2 construct: purchased DiscoveRx (KinomeScan)
T2 sequence (P29320 21-983): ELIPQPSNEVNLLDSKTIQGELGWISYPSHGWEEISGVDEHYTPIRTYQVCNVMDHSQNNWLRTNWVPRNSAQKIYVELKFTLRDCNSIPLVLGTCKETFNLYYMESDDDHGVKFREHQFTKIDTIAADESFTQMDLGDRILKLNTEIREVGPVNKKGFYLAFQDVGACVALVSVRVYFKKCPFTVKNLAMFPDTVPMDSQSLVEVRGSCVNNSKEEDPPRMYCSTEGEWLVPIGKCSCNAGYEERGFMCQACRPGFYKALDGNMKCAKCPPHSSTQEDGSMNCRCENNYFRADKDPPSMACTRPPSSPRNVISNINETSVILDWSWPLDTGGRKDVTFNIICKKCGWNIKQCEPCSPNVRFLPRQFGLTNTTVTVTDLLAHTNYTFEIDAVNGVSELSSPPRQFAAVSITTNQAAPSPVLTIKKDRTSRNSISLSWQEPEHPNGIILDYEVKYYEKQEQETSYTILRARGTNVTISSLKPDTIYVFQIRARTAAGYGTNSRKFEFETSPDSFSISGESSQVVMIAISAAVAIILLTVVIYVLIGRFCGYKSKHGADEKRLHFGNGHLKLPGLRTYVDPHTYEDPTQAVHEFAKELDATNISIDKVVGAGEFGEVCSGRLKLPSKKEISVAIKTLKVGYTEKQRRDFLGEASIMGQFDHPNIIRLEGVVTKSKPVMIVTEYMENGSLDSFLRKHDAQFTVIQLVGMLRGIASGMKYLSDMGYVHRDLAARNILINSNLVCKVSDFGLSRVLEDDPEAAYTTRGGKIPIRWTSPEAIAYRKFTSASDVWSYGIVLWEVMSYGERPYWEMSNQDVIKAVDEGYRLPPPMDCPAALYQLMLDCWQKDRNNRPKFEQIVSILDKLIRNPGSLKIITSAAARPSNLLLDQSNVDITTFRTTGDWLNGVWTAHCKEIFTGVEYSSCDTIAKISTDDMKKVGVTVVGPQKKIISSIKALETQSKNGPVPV

[3] = target: T3, KinomeScan kinase panel (Homo sapiens, UniProt P04626); conditions: ERBB2, 10 µM; read-out: score (%)
T3 construct: purchased DiscoveRx (KinomeScan)

[4] = target: T4, KinomeScan kinase panel (Homo sapiens, UniProt Q9Y463); conditions: DYRK1B, 10 µM; read-out: score (%)
T4 construct: purchased DiscoveRx (KinomeScan)

[5] = target: T5, KinomeScan kinase panel (Homo sapiens, UniProt P06241); conditions: FYN, 10 µM; read-out: score (%)
T5 construct: purchased DiscoveRx (KinomeScan)

[6] = target: T6, KinomeScan kinase panel (Homo sapiens, UniProt P42680); conditions: 10 µM, read-out: score (%)
T6 construct: purchased DiscoveRx (KinomeScan)
T6 sequence (P42680 1-631): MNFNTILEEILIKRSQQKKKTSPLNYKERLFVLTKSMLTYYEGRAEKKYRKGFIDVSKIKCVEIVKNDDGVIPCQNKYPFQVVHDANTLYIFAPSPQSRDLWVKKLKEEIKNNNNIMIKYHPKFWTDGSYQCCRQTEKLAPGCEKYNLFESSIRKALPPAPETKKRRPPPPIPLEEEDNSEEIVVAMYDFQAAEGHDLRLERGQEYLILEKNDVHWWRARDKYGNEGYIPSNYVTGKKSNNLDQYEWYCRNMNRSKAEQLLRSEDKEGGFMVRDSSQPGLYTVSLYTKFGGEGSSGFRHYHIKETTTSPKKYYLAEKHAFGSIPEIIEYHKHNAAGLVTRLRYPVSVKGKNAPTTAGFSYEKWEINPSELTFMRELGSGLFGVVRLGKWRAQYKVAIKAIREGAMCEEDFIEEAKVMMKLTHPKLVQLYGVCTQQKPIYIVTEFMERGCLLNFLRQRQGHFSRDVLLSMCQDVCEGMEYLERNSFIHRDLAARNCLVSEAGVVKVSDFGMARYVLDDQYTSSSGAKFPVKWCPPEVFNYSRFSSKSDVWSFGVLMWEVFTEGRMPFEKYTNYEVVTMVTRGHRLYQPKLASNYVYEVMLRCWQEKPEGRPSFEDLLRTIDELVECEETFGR

T4 sequence (Q9Y463 whole entry): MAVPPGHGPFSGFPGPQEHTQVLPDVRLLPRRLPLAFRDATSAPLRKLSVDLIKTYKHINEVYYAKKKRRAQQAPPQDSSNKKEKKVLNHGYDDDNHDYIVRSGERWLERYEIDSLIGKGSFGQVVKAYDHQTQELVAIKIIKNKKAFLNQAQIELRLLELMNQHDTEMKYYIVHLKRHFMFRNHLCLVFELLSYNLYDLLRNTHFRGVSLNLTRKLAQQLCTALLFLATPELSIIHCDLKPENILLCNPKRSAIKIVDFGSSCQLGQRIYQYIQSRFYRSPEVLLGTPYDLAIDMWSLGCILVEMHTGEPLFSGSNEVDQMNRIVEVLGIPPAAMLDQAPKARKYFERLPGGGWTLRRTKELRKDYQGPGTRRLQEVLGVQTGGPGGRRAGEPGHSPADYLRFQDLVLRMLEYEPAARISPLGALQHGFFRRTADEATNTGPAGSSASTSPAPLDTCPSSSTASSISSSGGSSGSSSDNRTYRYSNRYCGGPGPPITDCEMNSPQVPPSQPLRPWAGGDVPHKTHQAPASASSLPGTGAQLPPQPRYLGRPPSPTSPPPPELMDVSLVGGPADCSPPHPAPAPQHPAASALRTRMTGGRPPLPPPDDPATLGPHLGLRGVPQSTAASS
T3 sequence (P04626 23-1255): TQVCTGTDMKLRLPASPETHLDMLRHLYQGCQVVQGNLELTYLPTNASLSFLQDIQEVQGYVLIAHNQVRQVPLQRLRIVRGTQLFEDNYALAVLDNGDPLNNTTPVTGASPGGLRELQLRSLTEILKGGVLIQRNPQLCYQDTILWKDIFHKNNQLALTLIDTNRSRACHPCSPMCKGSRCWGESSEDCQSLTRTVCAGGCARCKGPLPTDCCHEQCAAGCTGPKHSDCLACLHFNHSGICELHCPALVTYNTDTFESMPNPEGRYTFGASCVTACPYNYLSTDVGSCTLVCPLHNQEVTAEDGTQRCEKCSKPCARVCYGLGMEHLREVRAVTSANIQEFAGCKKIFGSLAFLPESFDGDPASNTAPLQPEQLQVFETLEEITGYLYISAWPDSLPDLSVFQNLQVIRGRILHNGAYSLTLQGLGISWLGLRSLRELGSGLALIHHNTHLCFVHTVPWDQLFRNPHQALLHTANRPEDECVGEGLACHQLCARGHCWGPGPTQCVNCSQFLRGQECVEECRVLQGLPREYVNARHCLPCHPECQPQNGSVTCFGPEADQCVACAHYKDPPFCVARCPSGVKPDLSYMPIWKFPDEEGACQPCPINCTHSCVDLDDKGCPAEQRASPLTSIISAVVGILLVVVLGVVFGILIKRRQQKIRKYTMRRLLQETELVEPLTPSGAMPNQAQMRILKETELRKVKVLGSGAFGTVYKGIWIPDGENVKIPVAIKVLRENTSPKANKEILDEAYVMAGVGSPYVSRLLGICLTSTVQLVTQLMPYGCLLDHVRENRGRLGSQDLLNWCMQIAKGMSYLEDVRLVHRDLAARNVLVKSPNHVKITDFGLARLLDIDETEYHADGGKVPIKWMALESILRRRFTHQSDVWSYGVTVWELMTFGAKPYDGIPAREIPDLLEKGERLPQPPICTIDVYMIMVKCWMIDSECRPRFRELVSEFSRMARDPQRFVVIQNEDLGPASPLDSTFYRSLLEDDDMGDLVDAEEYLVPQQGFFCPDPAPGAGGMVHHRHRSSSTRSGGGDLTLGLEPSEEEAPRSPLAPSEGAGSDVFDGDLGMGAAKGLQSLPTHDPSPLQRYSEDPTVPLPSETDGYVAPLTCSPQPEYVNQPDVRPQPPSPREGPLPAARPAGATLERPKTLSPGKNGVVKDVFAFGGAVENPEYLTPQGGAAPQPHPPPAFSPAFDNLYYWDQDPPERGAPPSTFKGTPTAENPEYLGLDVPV
T1 sequence (P37023 22-503): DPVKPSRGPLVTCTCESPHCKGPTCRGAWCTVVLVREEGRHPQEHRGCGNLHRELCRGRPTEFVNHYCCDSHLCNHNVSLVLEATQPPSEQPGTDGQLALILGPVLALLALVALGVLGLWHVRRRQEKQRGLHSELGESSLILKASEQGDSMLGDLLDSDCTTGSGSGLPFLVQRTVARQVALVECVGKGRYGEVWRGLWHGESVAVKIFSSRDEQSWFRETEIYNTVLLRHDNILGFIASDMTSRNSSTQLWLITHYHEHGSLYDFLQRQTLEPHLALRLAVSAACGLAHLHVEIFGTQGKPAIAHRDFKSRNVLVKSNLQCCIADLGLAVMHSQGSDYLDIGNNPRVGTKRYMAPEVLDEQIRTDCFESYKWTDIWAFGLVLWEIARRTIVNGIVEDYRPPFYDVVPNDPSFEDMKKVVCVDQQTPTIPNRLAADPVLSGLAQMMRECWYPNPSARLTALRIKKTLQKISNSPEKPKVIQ
T5 sequence (P06241 whole entry): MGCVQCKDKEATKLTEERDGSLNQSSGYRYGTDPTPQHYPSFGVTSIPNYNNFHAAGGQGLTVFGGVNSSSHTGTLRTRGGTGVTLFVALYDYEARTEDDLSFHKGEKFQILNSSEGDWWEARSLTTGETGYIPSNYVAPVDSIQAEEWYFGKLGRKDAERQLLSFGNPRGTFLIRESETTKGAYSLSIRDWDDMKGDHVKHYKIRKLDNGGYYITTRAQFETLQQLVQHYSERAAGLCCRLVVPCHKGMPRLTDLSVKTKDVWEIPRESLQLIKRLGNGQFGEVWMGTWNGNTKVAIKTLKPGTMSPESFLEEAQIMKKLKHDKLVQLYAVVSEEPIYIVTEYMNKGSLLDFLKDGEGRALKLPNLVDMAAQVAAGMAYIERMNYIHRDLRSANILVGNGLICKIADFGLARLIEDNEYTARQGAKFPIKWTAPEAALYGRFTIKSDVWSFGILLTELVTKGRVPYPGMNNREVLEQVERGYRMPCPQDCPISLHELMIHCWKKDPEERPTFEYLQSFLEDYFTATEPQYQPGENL

Compound | remaining binding at 10 µM [1] | remaining binding at 10 µM [2] | remaining binding at 10 µM [3] | remaining binding at 10 µM [4] | remaining binding at 10 µM [5] | remaining binding at 10 µM ([6]; kinase TEC) | remaining binding at 10 µM ([6]; TEC)
CCN1CCN(Cc2ccc(NC(=O)c3ccc(C)c(NC(=O)c4cncc(-c5cccs5)c4)c3)cc2C(F)(F)F)CC1 [ALW-II-41-27] | > 30% | 7.6% | 11% | 12% | 0.25% | 1.7% | 
CCN1CCN(Cc2ccc(NC(=O)c3ccc(C)c(C#Cc4cccnc4)c3)cc2C(F)(F)F)CC1 [XMD15-44] | > 30% | 0.85% | 0.5% | > 30% | 0.35% | 3.7% | 
CCN1CCN(Cc2ccc(NC(=O)c3ccc(C)c(/C=C/c4cnc5[nH]ccc5c4Cl)c3)cc2C(F)(F)F)CC1 [HG-6-63-01, (E)-3-(2-(4-chloro-1H-pyrrolo[2,3-b]pyridin-5-yl)vinyl)-N-(4-((4-ethylpiperazin-1-yl)methyl)-3-(trifluoromethyl)phenyl)-4-methylbenzamide] | > 30% | 11% | 21% | 22% | 2.2% |  | 1.2%

— publication PMC4457528, “Identification of Novel Small Molecule Inhibitors of Oncogenic RET Kinase” (PLoS ONE, 2015)
